Patent US12569453B2, “Use of tapinarof for the treatment of atopic dermatitis” (Dermavant Sciences GmbH, priority 2018, dated 2026)

System: adolescent and adult subjects with AD
Assay: Phase II AD study: safety and tolerability
Type: in vivo, human
Method: Safety was assessed by the monitoring and recording of all AEs and serious adverse events (SAEs); evaluation of local (application site) tolerability; monitoring of hematology (including peripheral blood immunophenotyping and immunoglobulins), clinical chemistry, and vital signs; and the performance of ECGs and physical examinations.

[1] = Japanese subjects, pooled active (n=30)
[2] = adolescent subjects, pooled active (n=49)
[3] = adult subjects, pooled active (n=116)
[4] = pooled active treatment groups (n=165)

CC(C)c1c(O)cc(/C=C/c2ccccc2)cc1O [Tapinarof, 3,5-Dihydroxy-4-isopropyl-trans-stilbene]
Impetigo (0.5% BID): 0 n
Serious TEAEs (0.5% BID): 0 n
atopic dermatitis leading to study treatment discontinuation (0.5% BID): 7%
subjects with abnormal clinically significant ECGs at any post-screening visit (0.5% BID): 12%
Nasopharyngitis (0.5% BID, listed as GSK2894512): 4 n
Impetigo (0.5% QD): 0 n
Serious TEAEs (0.5% QD): 0 n
atopic dermatitis leading to study treatment discontinuation (0.5% QD): 2%
subjects with abnormal clinically significant ECGs at any post-screening visit (0.5% QD): 21%
Nasopharyngitis (0.5% QD, listed as GSK2894512): 1 n
subjects with abnormal clinically significant ECGs at any post-screening visit (1% BID): 30%
Nasopharyngitis (1% BID, listed as GSK2894512): 3 n
Acne (1% QD): 0 n
Dermatitis atopic (1% QD): 0 n
Discontinuous due to TEAEs (1% QD): 0 n
Impetigo (1% QD): 0 n
Serious TEAEs (1% QD): 0 n
subjects with abnormal clinically significant ECGs at any post-screening visit (1% QD): 24%
Nasopharyngitis (1% QD, listed as GSK2894512): 5 n
subjects permanently discontinuing treatment due to TEAEs [1]: 3%
subjects with mild TEAEs [1]: 50%
subjects with moderate TEAEs [1]: 10%
subjects with treatment-related TEAEs [1]: 17%
atopic dermatitis AE, median duration (active treatment groups): 12.5 days
atopic dermatitis AE, median time to onset (active treatment groups): 40.5 days
headache, median duration (active treatment groups): 2 days
headache, median time to onset (active treatment groups): 2 days
nasopharyngitis, median duration (active treatment groups): 9 days
nasopharyngitis, median time to onset (active treatment groups): 32 days
upper respiratory tract infection, median duration (active treatment groups): 16.5 days
upper respiratory tract infection, median time to onset (active treatment groups): 32.5 days
subjects permanently discontinuing treatment due to TEAEs [2]: 6%
subjects with mild TEAEs [2]: 41%
subjects with moderate TEAEs [2]: 14%
subjects with severe TEAEs [2]: 2%
subjects with treatment-related TEAEs [2]: 16%
subjects permanently discontinuing treatment due to TEAEs [3]: 3%
subjects with mild TEAEs [3]: 28%
subjects with moderate TEAEs [3]: 25%
subjects with severe TEAEs [3]: 3%
subjects with treatment-related TEAEs [3]: 14%
folliculitis, median start date (since Day 1) (all cases in active treatment groups): 17 days
subjects with elevations in liver chemistries (ALT/AST >2×ULN) (all in Tapinarof treatment groups): 6 subjects
treatment-related atopic dermatitis (pooled active groups): 1%
Acne (pooled active groups (n=165)): 4%
Impetigo (pooled active groups (n=165)): 1%
Nasopharyngitis (pooled active groups (n=165)): 8%
atopic dermatitis (worsening/flare) (pooled active groups (n=165)): 4%
atopic dermatitis leading to study treatment discontinuation (pooled active groups (n=165)): 2%
folliculitis (pooled active groups (n=165)): 11%
headache (pooled active groups (n=165)): 5%
treatment-related application site pain (pooled active groups (n=165)): 1%
treatment-related folliculitis (pooled active groups (n=165)): 5%
upper respiratory tract infection (pooled active groups (n=165)): 7%
subjects permanently discontinuing treatment due to TEAEs [4]: 4%
subjects with TEAEs [4]: 56%
subjects with mild TEAEs [4]: 32%
subjects with moderate TEAEs [4]: 22%
subjects with severe TEAEs [4]: 2%
subjects with treatment-related TEAEs [4]: 15%
subjects with TEAEs considered related to treatment (treatment groups pooled): 24 subjects
subjects with at least one AE (treatment groups pooled): 97 subjects
subjects with at least one TEAE (treatment groups pooled): 93 subjects
